Like-named read-outs stand apart in the source and are kept apart here.
What was measured:
TK-10 = assay: NCI growth inhibition and cytotoxicity screen, Renal Cancer panel; details: Homo sapiens; for GI50: TK-10; for CC50: TK-10, read-out: LC50
SW-620 = assay: NCI growth inhibition and cytotoxicity screen, Colon Cancer panel; details: Homo sapiens; for GI50: SW-620; for CC50: SW-620, read-out: LC50
HS 578T = assay: NCI growth inhibition and cytotoxicity screen, Breast Cancer panel; details: Homo sapiens; for CC50: read-out: LC50
ACHN = assay: NCI growth inhibition and cytotoxicity screen, Renal Cancer panel; details: Homo sapiens; for CC50: read-out: LC50
MCF7 = assay: NCI growth inhibition and cytotoxicity screen, Breast Cancer panel; details: Homo sapiens; for GI50: MCF7; for CC50: MCF7, read-out: LC50
OVCAR-8 = assay: NCI growth inhibition and cytotoxicity screen, Ovarian Cancer panel; details: Homo sapiens; for GI50: OVCAR-8; for CC50: OVCAR-8, read-out: LC50
NCI-H322M = assay: NCI growth inhibition and cytotoxicity screen, Lung Cancer panel; details: Homo sapiens; for CC50: read-out: LC50
SK-MEL-28 = assay: NCI growth inhibition and cytotoxicity screen, Melanoma panel; details: Homo sapiens; for GI50: SK-MEL-28; for CC50: SK-MEL-28, read-out: LC50
NCI-H460 = assay: NCI growth inhibition and cytotoxicity screen, Lung Cancer panel; details: Homo sapiens; for GI50: NCI-H460; for CC50: NCI-H460, read-out: LC50
M14 = assay: NCI growth inhibition and cytotoxicity screen, Melanoma panel; details: Homo sapiens; for GI50: M14; for CC50: M14, read-out: LC50
OVCAR-4 = assay: NCI growth inhibition and cytotoxicity screen, Ovarian Cancer panel; details: Homo sapiens; for GI50: OVCAR-4; for CC50: OVCAR-4, read-out: LC50
MDA-MB-468 = assay: cells; details: Homo sapiens; for GI50: MDA-MB-468; for CC50: MDA-MB-468, read-out: LC50
SK-MEL-5 = assay: NCI growth inhibition and cytotoxicity screen, Melanoma panel; details: Homo sapiens; for GI50: SK-MEL-5; for CC50: SK-MEL-5, read-out: LC50
[1] = test system: full panel of 60 different cancer cell lines; assay: NCI five dose screen, full panel summary; format: cell-based, human; details: for GI50: Homo sapiens; for potent growth inhibition on % of the cancer cell lines: share of the cancer cell lines potently inhibited
HCT-15 = assay: NCI growth inhibition and cytotoxicity screen, Colon Cancer panel; details: Homo sapiens; for GI50: HCT-15; for CC50: HCT-15, read-out: LC50
COLO 205 = assay: as above; details: Homo sapiens; for GI50: COLO 205; for CC50: COLO 205, read-out: LC50
KM12 = assay: as above; details: Homo sapiens; for GI50: KM12; for CC50: KM12, read-out: LC50
CAKI-1 = assay: NCI growth inhibition and cytotoxicity screen, Renal Cancer panel; details: Homo sapiens; for GI50: CAKI-1; for CC50: CAKI-1, read-out: LC50
MOLT-4 = assay: NCI growth inhibition and cytotoxicity screen, Leukemia panel; details: Homo sapiens; for GI50: MOLT-4; for CC50: MOLT-4, read-out: LC50
SF-268 = assay: NCI growth inhibition and cytotoxicity screen, CNS Cancer panel; details: Homo sapiens; for GI50: SF-268; for CC50: SF-268, read-out: LC50
786-0 = assay: NCI growth inhibition and cytotoxicity screen, Renal Cancer panel; details: Homo sapiens; for GI50: 786-0; for CC50: 786-0, read-out: LC50
NCI/ADR-RES = assay: NCI growth inhibition and cytotoxicity screen, Ovarian Cancer panel; details: Homo sapiens; for CC50: read-out: LC50
PC-3 = assay: NCI growth inhibition and cytotoxicity screen, Prostate Cancer panel; details: Homo sapiens; for GI50: PC-3; for CC50: PC-3, read-out: LC50
HCT-116 = assay: NCI growth inhibition and cytotoxicity screen, Colon Cancer panel; details: Homo sapiens; for GI50: HCT-116; for CC50: HCT-116, read-out: LC50
HOP-62 = assay: NCI growth inhibition and cytotoxicity screen, Lung Cancer panel; details: Homo sapiens; for GI50: HOP-62; for CC50: HOP-62, read-out: LC50
HT29 = assay: NCI growth inhibition and cytotoxicity screen, Colon Cancer panel; details: Homo sapiens; for GI50: HT-29; for CC50: HT-29, read-out: LC50
UACC-62 = assay: NCI growth inhibition and cytotoxicity screen, Melanoma panel; details: Homo sapiens; for GI50: UACC-62; for CC50: UACC-62, read-out: LC50
MALME-3M = assay: as above; details: Homo sapiens
[2] = range over the potently inhibited cell lines, read-out: GI50 ranging (potently inhibited cancer cell lines)
[3] = read-out: average GI50 value on all the cancer cell lines

**Q.** With COc1cc(/C(C#N)=C/c2ccc3ccccc3n2)cc(OC)c1OC [PNR-4-90, (Z)-3-(quinolin-2-yl)-2-(3,4,5-trimethoxyphenyl)acrylonitrile] as the compound, how does the GI50 (TK-10) read?
**A.** 4690 nM

**Q.** And the CC50 (TK-10)?
**A.** > 100000 nM

**Q.** And the GI50 (SW-620)?
**A.** 164 nM

**Q.** And the CC50 (SW-620)?
**A.** > 100000 nM

**Q.** What about the GI50 (HS 578T) of the same compound?
**A.** 689 nM

**Q.** And the CC50 (HS 578T)?
**A.** > 100000 nM

**Q.** And the GI50 (ACHN)?
**A.** 1040 nM

**Q.** And the CC50 (ACHN)?
**A.** > 100000 nM

**Q.** And the GI50 (MCF7)?
**A.** 275 nM

**Q.** And the CC50 (MCF7)?
**A.** > 100000 nM

**Q.** What about the GI50 (OVCAR-8) of the same compound?
**A.** 446 nM

**Q.** What about the CC50 (OVCAR-8) of the same compound?
**A.** > 100000 nM

**Q.** And the GI50 (NCI-H322M)?
**A.** 718 nM

**Q.** And the CC50 (NCI-H322M)?
**A.** > 100000 nM

**Q.** What about the GI50 (SK-MEL-28) of the same compound?
**A.** 518 nM

**Q.** And the CC50 (SK-MEL-28)?
**A.** > 100000 nM

**Q.** And the GI50 (NCI-H460)?
**A.** 361 nM

**Q.** What about the CC50 (NCI-H460) of the same compound?
**A.** > 100000 nM

**Q.** And the GI50 (M14)?
**A.** 173 nM

**Q.** What about the CC50 (M14) of the same compound?
**A.** > 100000 nM

**Q.** And the GI50 (OVCAR-4)?
**A.** 1430 nM

**Q.** What about the CC50 (OVCAR-4) of the same compound?
**A.** > 100000 nM

**Q.** And the GI50 (MDA-MB-468)?
**A.** 243 nM

**Q.** What about the CC50 (MDA-MB-468) of the same compound?
**A.** > 100000 nM

**Q.** What about the GI50 (SK-MEL-5) of the same compound?
**A.** 243 nM

**Q.** What about the CC50 (SK-MEL-5) of the same compound?
**A.** > 100000 nM

**Q.** What about the GI50 [1, 2] of the same compound?
**A.** 33 to 943 nM

**Q.** And the GI50 [1, 3]?
**A.** 400 nM

**Q.** What about the “potent growth inhibition on % of the cancer cell lines” value [1] of the same compound?
**A.** 91%

**Q.** And the GI50 (HCT-15)?
**A.** 319 nM

**Q.** What about the CC50 (HCT-15) of the same compound?
**A.** > 100000 nM

**Q.** What about the GI50 (COLO 205) of the same compound?
**A.** 198 nM

**Q.** And the CC50 (COLO 205)?
**A.** 32700 nM

**Q.** And the GI50 (KM12)?
**A.** 350 nM

**Q.** What about the CC50 (KM12) of the same compound?
**A.** > 100000 nM

**Q.** What about the GI50 (CAKI-1) of the same compound?
**A.** 68 nM

**Q.** What about the CC50 (CAKI-1) of the same compound?
**A.** > 100000 nM

**Q.** What about the GI50 (MOLT-4) of the same compound?
**A.** 488 nM

**Q.** And the CC50 (MOLT-4)?
**A.** > 100000 nM

**Q.** And the GI50 (SF-268)?
**A.** 835 nM

**Q.** And the CC50 (SF-268)?
**A.** > 100000 nM

**Q.** What about the GI50 (786-0) of the same compound?
**A.** 445 nM

**Q.** And the CC50 (786-0)?
**A.** > 100000 nM

**Q.** What about the GI50 (NCI/ADR-RES) of the same compound?
**A.** 112 nM

**Q.** And the CC50 (NCI/ADR-RES)?
**A.** > 100000 nM

**Q.** What about the GI50 (PC-3) of the same compound?
**A.** 348 nM

**Q.** What about the CC50 (PC-3) of the same compound?
**A.** > 100000 nM

**Q.** And the GI50 (HCT-116)?
**A.** 234 nM

**Q.** And the CC50 (HCT-116)?
**A.** > 100000 nM

**Q.** And the GI50 (HOP-62)?
**A.** 567 nM

**Q.** And the CC50 (HOP-62)?
**A.** > 100000 nM

**Q.** And the GI50 (HT29)?
**A.** 240 nM

**Q.** And the CC50 (HT29)?
**A.** > 100000 nM

**Q.** What about the GI50 (UACC-62) of the same compound?
**A.** 92 nM

**Q.** What about the CC50 (UACC-62) of the same compound?
**A.** > 100000 nM

**Q.** What does the source list for COc1cc(OC)cc(/C(C#N)=C/c2ccc3ccccc3n2)c1 [PNR-4-84, (Z)-2-(3,5-dimethoxyphenyl)-3-(quinolin-2-yl)acrylonitrile]?
**A.** GI50 (TK-10): 3280 nM; CC50 (TK-10): > 100000 nM; GI50 (MALME-3M): 348 nM; CC50 (MALME-3M; read-out: LC50): > 100000 nM; GI50 (SW-620): 357 nM; CC50 (SW-620): > 100000 nM; GI50 (HS 578T): 700 nM; CC50 (HS 578T): > 100000 nM; GI50 (ACHN): 773 nM; CC50 (ACHN): > 100000 nM; GI50 (MCF7): 537 nM; CC50 (MCF7): > 100000 nM; GI50 (OVCAR-8): 659 nM; CC50 (OVCAR-8): > 100000 nM; GI50 (NCI-H322M): 3020 nM; CC50 (NCI-H322M): > 100000 nM; GI50 (SK-MEL-28): 896 nM; CC50 (SK-MEL-28): > 100000 nM; GI50 (NCI-H460): 339 nM; CC50 (NCI-H460): > 100000 nM; GI50 (M14): 360 nM; CC50 (M14): > 100000 nM; GI50 (OVCAR-4): 788 nM; CC50 (OVCAR-4): > 100000 nM; GI50 (MDA-MB-468): 1500 nM; CC50 (MDA-MB-468): > 100000 nM; GI50 (SK-MEL-5): 406 nM; CC50 (SK-MEL-5): > 100000 nM; GI50 [1, 2]: 94 to 983 nM; GI50 [1, 3]: 490 nM; potent growth inhibition on % of the cancer cell lines [1]: 86%; GI50 (HCT-15): 409 nM; CC50 (HCT-15): > 100000 nM; GI50 (COLO 205): 374 nM; CC50 (COLO 205): > 100000 nM; GI50 (KM12): 425 nM; CC50 (KM12): > 100000 nM; GI50 (CAKI-1): 318 nM; CC50 (CAKI-1): > 100000 nM; GI50 (MOLT-4): 419 nM; CC50 (MOLT-4): > 100000 nM; GI50 (SF-268): 476 nM; CC50 (SF-268): > 100000 nM; GI50 (786-0): 501 nM; CC50 (786-0): > 100000 nM; GI50 (NCI/ADR-RES): 283 nM; CC50 (NCI/ADR-RES): > 100000 nM; GI50 (PC-3): 584 nM; CC50 (PC-3): > 100000 nM; GI50 (HCT-116): 416 nM; CC50 (HCT-116): 47300 nM; GI50 (HOP-62): 959 nM; CC50 (HOP-62): > 100000 nM; GI50 (HT29): 367 nM; CC50 (HT29): > 100000 nM; GI50 (UACC-62): 449 nM; CC50 (UACC-62): > 100000 nM

From patent publication US9884842B2, “Combretastatin analogs” (The Board of Trustees of the University of Arkansas, priority 2013, dated 2018)
